# Experiments:
# NIH3T3 = assay: Cytotoxicity against mouse NIH/3T3 cells assessed as reduction in cell viability after 48 hrs by CCK8 assay; assay type: cell-based; conditions: NIH3T3, 48 h
# SMMC-7721 [1] = assay: Induction of apoptosis in human SMMC7721 cells assessed as late apoptotic cells at 1 uM incubated for 48 hrs by Annexin-V-FITC/propidium iodide staining based flow cytometry (Rvb=1.73%); assay type: functional
# SMMC-7721 [2] = assay: Cell cycle arrest in human SMMC7721 cells assessed as accumulation at G2/M phase at 4 uM incubated for 48 hrs by propidium iodide staining based flow cytometry (Rvb=16.17%); assay type: functional
# HeLa [3] = assay: Antiproliferative activity against human HeLa cells assessed as reduction in cell growth at 2 uM incubated for 72 hrs by CCK-8 assay relative to control; assay type: functional
# SMMC-7721 [4] = assay: Induction of apoptosis in human SMMC7721 cells assessed as early apoptotic cells at 0.25 uM incubated for 48 hrs by Annexin-V-FITC/propidium iodide staining based flow cytometry (Rvb=2.88%); assay type: functional
# SMMC-7721 [5] = assay: Cell cycle arrest in human SMMC7721 cells assessed as accumulation at G2/M phase at 0.25 uM incubated for 48 hrs by propidium iodide staining based flow cytometry (Rvb=16.17%); assay type: functional
# SMMC-7721 [6] = assay: Induction of apoptosis in human SMMC7721 cells assessed as necrotic cells at 1 uM incubated for 48 hrs by Annexin-V-FITC/propidium iodide staining based flow cytometry (Rvb=1.88%); assay type: functional
# SMMC-7721 [7] = assay: Induction of apoptosis in human SMMC7721 cells assessed as viable cells at 4 uM incubated for 48 hrs by Annexin-V-FITC/propidium iodide staining based flow cytometry (Rvb=93.5%); assay type: functional; conditions: SMMC-7721, 48 h, read-out: Activity
# A-375 [8] = assay: Antiproliferative activity against human A375 cells assessed as reduction in cell growth at 2 uM incubated for 72 hrs by CCK-8 assay relative to control; assay type: functional; conditions: A-375, 72 h
# HCT-116 [9] = assay: Antiproliferative activity against human HCT116 cells assessed as reduction in cell growth at 2 uM incubated for 72 hrs by CCK-8 assay relative to control; assay type: functional; conditions: HCT-116, 72 h
# SMMC-7721 [10] = assay: Antiproliferative activity against human SMMC7721 cells assessed as reduction in cell growth at 8 uM incubated for 72 hrs by CCK-8 assay relative to control; assay type: functional; conditions: SMMC-7721, 72 h
# SMMC-7721 [11] = assay: Cell cycle arrest in human SMMC7721 cells assessed as accumulation at G0/G1 phase at 0.25 uM incubated for 48 hrs by propidium iodide staining based flow cytometry (Rvb=77%); assay type: functional
# SMMC-7721 [12] = assay: Cell cycle arrest in human SMMC7721 cells assessed as accumulation at S phase at 4 uM incubated for 48 hrs by propidium iodide staining based flow cytometry (Rvb=6.83%); assay type: functional
# SMMC-7721 [13] = assay: Cell cycle arrest in human SMMC7721 cells assessed as accumulation at S phase at 1 uM incubated for 48 hrs by propidium iodide staining based flow cytometry (Rvb=6.83%); assay type: functional
# HeLa [14] = assay: Antiproliferative activity against human HeLa cells assessed as reduction in cell growth at 8 uM incubated for 72 hrs by CCK-8 assay relative to control; assay type: functional
# SMMC-7721 [15] = assay: Induction of apoptosis in human SMMC7721 cells assessed as late apoptotic cells at 4 uM incubated for 48 hrs by Annexin-V-FITC/propidium iodide staining based flow cytometry (Rvb=1.73%); assay type: functional
# SMMC-7721 [16] = assay: Induction of apoptosis in human SMMC7721 cells assessed as late apoptotic cells at 0.25 uM incubated for 48 hrs by Annexin-V-FITC/propidium iodide staining based flow cytometry (Rvb=1.73%); assay type: functional
# HeLa [17] = assay: Antiproliferative activity against human HeLa cells assessed as reduction in cell growth incubated for 72 hrs by CCK-8 assay; assay type: functional, cell-based
# SMMC-7721 [18] = assay: Induction of apoptosis in human SMMC7721 cells assessed as necrotic cells at 0.25 uM incubated for 48 hrs by Annexin-V-FITC/propidium iodide staining based flow cytometry (Rvb=1.88%); assay type: functional
# SMMC-7721 [19] = assay: Cell cycle arrest in human SMMC7721 cells assessed as accumulation at G0/G1 phase at 4 uM incubated for 48 hrs by propidium iodide staining based flow cytometry (Rvb=77%); assay type: functional
# SMMC-7721 [20] = assay: Cell cycle arrest in human SMMC7721 cells assessed as accumulation at G0/G1 phase at 1 uM incubated for 48 hrs by propidium iodide staining based flow cytometry (Rvb=77%); assay type: functional
# SMMC-7721 [21] = assay: Induction of apoptosis in human SMMC7721 cells assessed as viable cells at 1 uM incubated for 48 hrs by Annexin-V-FITC/propidium iodide staining based flow cytometry (Rvb=93.5%); assay type: functional; conditions: SMMC-7721, 48 h, read-out: Activity
# SMMC-7721 [22] = assay: Cell cycle arrest in human SMMC7721 cells assessed as accumulation at S phase at 0.25 uM incubated for 48 hrs by propidium iodide staining based flow cytometry (Rvb=6.83%); assay type: functional
# SMMC-7721 [23] = assay: Induction of apoptosis in human SMMC7721 cells assessed as necrotic cells at 4 uM incubated for 48 hrs by Annexin-V-FITC/propidium iodide staining based flow cytometry (Rvb=1.88%); assay type: functional
# HCT-116 [24] = assay: Antiproliferative activity against human HCT116 cells assessed as reduction in cell growth at 8 uM incubated for 72 hrs by CCK-8 assay relative to control; assay type: functional; conditions: HCT-116, 72 h
# SMMC-7721 [25] = assay: Induction of apoptosis in human SMMC7721 cells assessed as early apoptotic cells at 1 uM incubated for 48 hrs by Annexin-V-FITC/propidium iodide staining based flow cytometry (Rvb=2.88%); assay type: functional
# A549 [26] = assay: Antiproliferative activity against human A549 cells assessed as reduction in cell growth at 2 uM incubated for 72 hrs by CCK-8 assay relative to control; assay type: functional; conditions: A549, 72 h
# A549 [27] = assay: Antiproliferative activity against human A549 cells assessed as reduction in cell growth incubated for 72 hrs by CCK-8 assay; assay type: functional, cell-based; conditions: A549, 72 h
# SMMC-7721 [28] = assay: Induction of apoptosis in human SMMC7721 cells assessed as viable cells at 0.25 uM incubated for 48 hrs by Annexin-V-FITC/propidium iodide staining based flow cytometry (Rvb=93.5%); assay type: functional; conditions: SMMC-7721, 48 h, read-out: Activity
# A549 [29] = assay: Antiproliferative activity against human A549 cells assessed as reduction in cell growth at 8 uM incubated for 72 hrs by CCK-8 assay relative to control; assay type: functional; conditions: A549, 72 h
# SMMC-7721 [30] = assay: Antiproliferative activity against human SMMC7721 cells assessed as reduction in cell growth at 2 uM incubated for 72 hrs by CCK-8 assay relative to control; assay type: functional; conditions: SMMC-7721, 72 h
# SMMC-7721 [31] = assay: Induction of apoptosis in human SMMC7721 cells assessed as early apoptotic cells at 4 uM incubated for 48 hrs by Annexin-V-FITC/propidium iodide staining based flow cytometry (Rvb=2.88%); assay type: functional
# A-375 [32] = assay: Antiproliferative activity against human A375 cells assessed as reduction in cell growth at 8 uM incubated for 72 hrs by CCK-8 assay relative to control; assay type: functional; conditions: A-375, 72 h
# SMMC-7721 [33] = assay: Cell cycle arrest in human SMMC7721 cells assessed as accumulation at G2/M phase at 1 uM incubated for 48 hrs by propidium iodide staining based flow cytometry (Rvb=16.17%); assay type: functional
# A-375 [34] = assay: Antiproliferative activity against human A375 cells assessed as reduction in cell growth incubated for 72 hrs by CCK-8 assay; assay type: functional, cell-based; conditions: A-375, 72 h
# SMMC-7721 [35] = assay: Antiproliferative activity against human SMMC7721 cells assessed as reduction in cell growth incubated for 72 hrs by CCK-8 assay; assay type: functional, cell-based; conditions: SMMC-7721, 72 h
# HCT-116 [36] = assay: Antiproliferative activity against human HCT116 cells assessed as reduction in cell growth incubated for 72 hrs by CCK-8 assay; assay type: functional, cell-based; conditions: HCT-116, 72 h
compound,measurement,setting,value
Nc1ccccc1NC(=O)c1ccc(CNC(=O)OCc2cccnc2)cc1 [ENTINOSTAT],IC50,NIH3T3,2.42 µM
same,Activity,SMMC-7721 [1],9.39%
same,Activity,SMMC-7721 [2],14.35%
same,inhibition at 2 µM,HeLa [3],42.4%
same,Activity,SMMC-7721 [4],4.13%
same,Activity,SMMC-7721 [5],15.43%
same,Activity,SMMC-7721 [6],2.5%
same,viability at 4 µM,SMMC-7721 [7],53.9%
same,inhibition at 2 µM,A-375 [8],30.2%
same,inhibition at 2 µM,HCT-116 [9],67.3%
same,inhibition at 8 µM,SMMC-7721 [10],48.7%
same,Activity,SMMC-7721 [11],75.1%
same,Activity,SMMC-7721 [12],14.21%
same,Activity,SMMC-7721 [13],9.55%
same,inhibition at 8 µM,HeLa [14],89.8%
same,Activity,SMMC-7721 [15],27.9%
same,Activity,SMMC-7721 [16],3.31%
same,IC50,HeLa [17],2.36 µM
same,Activity,SMMC-7721 [18],1.18%
same,Activity,SMMC-7721 [19],71.44%
same,Activity,SMMC-7721 [20],76.1%
same,viability at 1 µM,SMMC-7721 [21],81.5%
same,Activity,SMMC-7721 [22],9.47%
same,Activity,SMMC-7721 [23],5.64%
same,inhibition at 8 µM,HCT-116 [24],72.3%
same,Activity,SMMC-7721 [25],6.66%
same,inhibition at 2 µM,A549 [26],20%
same,IC50,A549 [27],7.15 µM
same,viability at 0.25 µM,SMMC-7721 [28],91.4%
same,inhibition at 8 µM,A549 [29],47.3%
same,inhibition at 2 µM,SMMC-7721 [30],28.2%
same,Activity,SMMC-7721 [31],12.5%
same,inhibition at 8 µM,A-375 [32],83.1%
same,Activity,SMMC-7721 [33],14.35%
Cc1cccc2c(=O)n(C)c(SCc3ccc(C(=O)Nc4ccccc4N)cc3)nc12,inhibition at 2 µM,HeLa [3],47.3%
same,IC50,A-375 [34],5.26 µM
same,inhibition at 2 µM,A-375 [8],48.3%
same,IC50,SMMC-7721 [35],2.67 µM
same,inhibition at 2 µM,HCT-116 [9],42.7%
same,inhibition at 8 µM,SMMC-7721 [10],74.4%
same,inhibition at 8 µM,HeLa [14],51.4%
same,IC50,HCT-116 [36],3.06 µM
same,inhibition at 8 µM,HCT-116 [24],76.4%
same,inhibition at 2 µM,A549 [26],38%
same,IC50,A549 [27],8.44 µM
same,inhibition at 8 µM,A549 [29],66.8%
same,inhibition at 2 µM,SMMC-7721 [30],54.3%
same,inhibition at 8 µM,A-375 [32],54.9%
Cn1c(SCc2ccc(/C=C/C(=O)Nc3ccccc3N)cc2)nc2cc(Cl)ccc2c1=O,inhibition at 2 µM,HeLa [3],29.3%
same,inhibition at 2 µM,A-375 [8],2.4%
same,inhibition at 2 µM,HCT-116 [9],2.1%
same,inhibition at 8 µM,SMMC-7721 [10],20.9%
same,inhibition at 8 µM,HeLa [14],38.8%
same,inhibition at 8 µM,HCT-116 [24],21.5%
same,inhibition at 2 µM,A549 [26],15.5%
same,IC50,A549 [27],16.4 µM
same,inhibition at 8 µM,A549 [29],68.8%
same,inhibition at 2 µM,SMMC-7721 [30],7.8%
same,inhibition at 8 µM,A-375 [32],10.2%
Cc1ccc2c(=O)n(C)c(SCc3ccc(C(=O)Nc4ccccc4N)cc3)nc2c1,inhibition at 2 µM,HeLa [3],59.8%
same,IC50,A-375 [34],1.19 µM
same,inhibition at 2 µM,A-375 [8],52.9%
same,IC50,SMMC-7721 [35],3.62 µM
same,inhibition at 2 µM,HCT-116 [9],59.8%
same,inhibition at 8 µM,SMMC-7721 [10],78.9%
same,inhibition at 8 µM,HeLa [14],84.3%
same,IC50,HeLa [17],3.12 µM
same,IC50,HCT-116 [36],2.47 µM
same,inhibition at 8 µM,HCT-116 [24],74.9%
same,inhibition at 2 µM,A549 [26],23.3%
same,inhibition at 8 µM,A549 [29],52.7%
same,inhibition at 2 µM,SMMC-7721 [30],41.7%
same,inhibition at 8 µM,A-375 [32],88.2%
Cn1c(SCc2ccc(C(=O)Nc3ccccc3N)cc2)nc2cc(Cl)ccc2c1=O,inhibition at 2 µM,HeLa [3],51.1%
same,IC50,A-375 [34],3.01 µM
same,inhibition at 2 µM,A-375 [8],44.5%
same,IC50,SMMC-7721 [35],3.32 µM
same,inhibition at 2 µM,HCT-116 [9],58.7%
same,inhibition at 8 µM,SMMC-7721 [10],73.2%
same,inhibition at 8 µM,HeLa [14],76.5%
same,IC50,HeLa [17],4.99 µM
same,IC50,HCT-116 [36],2.22 µM
same,inhibition at 8 µM,HCT-116 [24],81.5%
same,inhibition at 2 µM,A549 [26],21.8%
same,inhibition at 8 µM,A549 [29],22.3%
same,inhibition at 2 µM,SMMC-7721 [30],38.9%
same,inhibition at 8 µM,A-375 [32],51.2%

# Reference: ChEMBL document CHEMBL4393680, “Design, synthesis and biological evaluation of novel thioquinazolinone-based 2-aminobenzamide derivatives as potent histone deacetylase (HDAC) inhibitors” (Eur J Med Chem, 2019)
